In patent publication US20110098360A1, “ADAMANTANE DERIVATIVE FOR INHIBITING TOXICITY OF AMYLOID OLIGOMER” (NANODIAMOND, INC., priority 2008, published 2011):
Each block holds one compound with its values, some of them ahead of it.

Assays:
[1] = molecular target: T1, (Aβ)12 (Homo sapiens, UniProt P05067); experiment: CD spectrum of (Aβ)12 after treatment with adamantane derivatives; conditions: for change in the CD spectrum of (Aβ)12: (Aβ)12 treated with adamantane derivative, 37° C., 190-250 nm; for effect of deforming the β-turn structure (rank order): among the adamantane derivatives tested
T1 construct: purchased Biopeptide Co; host or cells: chemical synthesis; oligomerised in house (HFIP, DMSO, HEPES pH 7.4, 37 °C, 24 h)
T1 sequence (P05067 672-713 limits assumed): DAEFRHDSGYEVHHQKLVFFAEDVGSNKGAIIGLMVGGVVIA
Description: (§1) (Aβ)12 was prepared according to a known method. Specifically, synthetic Aβ1-42 peptide (Biopeptide Co.) was suspended at room temperature in 100% 1, 1, 1, 3,3,3-hexafluoro-2-propanol (HFIP). After incubation for 30 minutes, HFIP was removed by evaporating under mild nitrogen flow. Then, Aβ1-42 was suspended again in dimethyl sulfoxide (DMSO) at a concentration of 5 mM and then diluted with mM 2-[4-(2-hydroxyethyl)-1-piperazinyl]ethanesulfonic acid (HEPES; pH 7.4) to a final concentration of 110 μM. The resulting solution was incubated at 37° C. for 24 hours while stirring at 500 rpm using a micro stir bar. After centrifugation at 4000 g for 30 minutes, thus obtained 56-kDa Aβ1-42 dodecamer, i.e. (Aβ)12, was concentrated (50 kDa and 100 kDa cut-off). The presence of (Aβ)12 in the concentrated sample was identified by sodium dodecyl sulfate polyacrylamide gel electrophoresis (SDS-PAGE). Its spherical structure was confirmed by atomic force microscopy. For cell culturing experiment, a 2 μM solution of (Aβ)12 was diluted using serum-free Dulbecco's modified Eagles medium (DMEM) to a final concentration of 33 nM, which corresponds to a monomer concentration of about 400 nM.
Circular dichroism (CD) spectra are useful in determining the secondary structure of proteins in solution. CD spectrum was obtained using a Jasco-810 instrument at high-sensitivity mode (5 mdeg), with a time constant of 4 s, at a scan rate of 100 nm/min, for 30 cycles. The spectrum was obtained at 37° C. in the wavelength region from 190 nm to 250 nm.
Referring to FIG. 5, when the amyloid oligomer was treated with the adamantane derivatives, the intensity of the positive band of the oligomer at 195 nm decreased and the positive band at 205 nm shifted toward longer wavelength. This means that the adamantane derivatives induce deformation of the oligomer structure by changing the configuration of the β-sheets. […] Although a detailed structure of the deformed oligomer is not clear, the decrease of intensity at 205 nm is due to the β-turn structure.

[2] = system: H19-7 cells; experiment: FLIM of single live H19-7 cell in the presence of (Aβ)12 and adamantane derivatives; assay type: cell-based, rat; conditions: for aspect ratio of single live cell: H19-7 cell treated with beta amyloid oligomer, FIG. 8; for apoptosis / toxicity of (Aβ)12 on single cell (fluorescence images): H19-7 cell, 33 nM (Aβ)12 plus adamantane derivative, FIG. 7
Description: as §1, with “After centrifugation at 4000 g for 30 minutes, thus obtained 56-kDa Aβ1-42 dodecamer, i.e. (Aβ)12, was concentrated (50 kDa and 100 kDa cut-off). The presence of (Aβ)12 in the concentrated sample was identified by sodium dodecyl sulfate polyacrylamide gel electrophoresis (SDS-PAGE). Its spherical structure was confirmed by atomic force microscopy.” left out
Rat hippocampal H19-7 cells were stored in DMEM containing 10% (v/v) fetal bovine serum (FBS). The cells were cultured to 80% colonies on a culture dish at low concentration in a 35° C. incubator of humidified 5% CO2 atmosphere. For fluorescence lifetime imaging microscopy (FLIM), the cells were cultured for a day after being transferred to a dish equipped with a poly-D-lysine-coated cover glass (MatTek Corporation). Before FLIM measurement, the cells were stained with 3 μM Cell Tracker Green CMFDA (Molecular Probes) solution and then incubated for 30 minutes in serum-free medium.
FLIM is a powerful tool for producing clear images of live cells. FLIM images were obtained at 40 MHz at an excitation wavelength of 467 nm (Picoquant PDL 800-B), using a band pass filter for 500-580 nm and a long pass emission filter for 473 nm (Semlock). A Nikon confocal microscope equipped with an oil-impregnated objective lens (NA 1.3) was used as a platform of an AFM scanner (PSIA). In FLIM measurement, time-correlated single photon counting is very important. […] The measurement was carried out after placing live cells on a poly-d-lysine-coated cover glass bottomed dish (MatTek Corporation) coated with and then filling serum-free medium diluted with PBS buffer.
For FLIM imaging, […] hippocampal cells (H19-7) were labeled with Cell Tracker Green having a relatively small pKa value.
In general, the degree of degeneration of neurons can be qualitatively analyzed based on the change in the aspect ratio of a single cell. The progression of neuronal death could be evaluated from the decrease in the aspect ratio.

[3] = system: LTP in hippocampal CA1 region (Schaffer collateral pathway); experiment: fEPSP / LTP extracellular recording in hippocampal CA1 transverse slice; design: species or system ICR mouse; conditions: 1 hour after HFS
Description: Field excitatory postsynaptic potential (fEPSP) was measured in the CA1 region (Schaffer collateral pathway) of the hippocampus of an ICR mouse using the extracellular recording technique.
Hippocampal slice for fEPSP experiment was obtained from young (4-7 weeks old) male ICR mice. The mice were anesthetized with isoflurane prior to decapitation. After quickly taking out the brain of the mouse from the skull, the brain was cooled with ice and then put in a highly concentrated sucrose solution (sucrose 201 mM, KCl 3 mM, NaH2PO4 1.25 mM, MgCl2 3 mM, CaCl2 1 mM, NaHCO3 26 mM and D-glucose 10 mM) of pH 7.3 with oxygen (95% O2 and 5% CO2) supplied thereto. After isolating the hippocampus from the brain, transverse slices were obtained by cutting with a vibratome (Ted Pella, Redding, Calif., USA) in the high-concentration sucrose solution. Before extracellular recording, the transverse slice was incubated at 30° C. in a normal artificial cerebrospinal fluid (nACSF; NaCl 126 mM, KCl 3 mM, NaH2PO4 1.25 mM, MgSO4 1.3 mM, MgSO4 1.3 mM, CaCl2 2.4 mM, NaHCO3 26 mM and D-glucose 10 mM) of […] of pH 7.3 with oxygen supplied thereto. […]
In order to induce long-term potentiation (LTP), high-frequency stimulation (HFS, 2 trains, 100 Hz, 1s duration, 15 intervals) was applied with the same strength as that of the baseline experiment. Average LTP was calculated by averaging 20 fEPSP slopes at 55 to 60 minutes after the application of the high-frequency stimulation.
Extracellular field potential was recorded using a microelectrode AC amplifier model 1800 (A-M Systems, Inc., USA). The response signal was low-pass filtered at 5 kHz, digital sampled at 10 kHz using a Digidata 1322 A/D converter, and then analyzed using pCLAMP 9.0 software (Axon Instruments). […] The difference between two means was analyzed by an unpaired Student's t-test. p<0.05 was evaluated as significant. […]

[4] = system: Aβ1-42; experiment: In vivo test in Tg-APP/PS1 mice, ELISA of insoluble Aβ1-42; design: species or system Tg-APPswe/PS1dE9 mouse; conditions: single ICV injection of TAMA (1.274 μg), 24 hours, prefrontal cortex, 7.5-month-old mice
Description: (§2) Transgenic APPswe/PS1dE9 (Tg-APP/PS1) mouse overexpressing human APP and PS1 mutations was crossbred with hybrid mouse of C57BL6 and C3H until the same genetic background as the original Tg-APP/PS1 mouse was attained. The mice were accommodated in a cage with temperature and humidity controlled and 12 hour night/day cycles (lighting began at 7 a.m.), 1 to 3 mice per cage. The mice were freely given water and feed. All the mice were handled according to the Guideline for Animal Breeding and Management of the College of Pharmacy, Ewha Womans University. […]
(§3) Quantification of Aβ by ELISA was performed according to the literature of Lee et al. (Lee et al., Neurobiol. Dis. 22, 10-24). […]
(§4) Aβ1-40 peptide and Aβ1-42 peptide concentrations were determined using […] Human β Amyloid Aβ1-40 and Aβ1-42 colorimetric sandwich ELISA kits (Signal Select™, BioSource, Camarillo, Calif., USA).
(§5) A and B respectively show the quantity of insoluble Aβ1-40 (A) and insoluble Aβ1-42 (B) in the prefrontal cortex of a 7.5-month-old Tg-APP/PS1 mouse to which TAMA was administered represented as % mol with respect to when only the vehicle was administered. […]

[5] = system: Aβ1-40; experiment: In vivo test in Tg-APP/PS1 mice, ELISA of insoluble Aβ1-40; design: species or system Tg-APPswe/PS1dE9 mouse; conditions: single ICV injection of TAMA (1.274 μg), 24 hours, prefrontal cortex, 7.5-month-old mice
Description: as §2, §3, §4, §5

Compound: NC12CC3CC(CC(C3)C1)C2 [amantadine, Amantadine]
change in the CD spectrum of (Aβ)12 [1]: broadening of the positive band from 205 nm to 215 nm
effect of deforming the β-turn structure (rank order) [1]: TAMA>amantadine>memantine

change in the CD spectrum of (Aβ)12 [1]: negative band near 195 nm
effect of deforming the β-turn structure (rank order) [1]: TAMA>amantadine>memantine
Compound: NCC12CC3(CN)CC(CN)(C1)CC(CN)(C2)C3 [TAMA, 1,3,5,7-Tetrakis(aminomethyl)adamantane]
aspect ratio of single live cell ([2]; after 120 minutes): no decrease in the aspect ratio
apoptosis / toxicity of (Aβ)12 on single cell (fluorescence images) [2]: not affected by the toxicity of the oligomer at all
fEPSP slope increase with respect to the baseline ([3]; 30 nM Aβ oligomer and 200 nM TAMA, N=9): 170.4±13.72%
fEPSP slope increase with respect to the baseline ([3]; 200 nM TAMA without Aβ oligomer, N=4): 183.2±11.30%
quantity of insoluble Aβ1-42 relative to vehicle (control) group [4]: 87.8%
quantity of insoluble Aβ1-40 relative to vehicle (control) group [5]: 69.7%

Compound: Aβ oligomer: 56-kDa Aβ1-42 dodecamer prepared from synthetic Aβ1-42 peptide; neurotoxic oligomer used as challenge
aspect ratio of single live cell ([2]; after 120 minutes): 1.0
fEPSP slope increase with respect to the baseline ([3]; 30 nM Aβ oligomer solution only, N=9): 124.7±5.743%

effect of deforming the β-turn structure (rank order) [1]: TAMA>amantadine>memantine
Compound: CC12CC3CC(C)(C1)CC(N)(C3)C2 [memantine]
aspect ratio of single live cell ([2]; in 60 minutes): 1.0
apoptosis / toxicity of (Aβ)12 on single cell (fluorescence images) [2]: comparable to or faster than in the presence of (Aβ)12 only
change in the CD spectrum of (Aβ)12 [1]: almost identical to that of the typical β-turn peptide
